Laboratory results taken from PMC12040169 (PLOS Biology, 2025).

Experiment: in vitro
Settings: human, hela cells

Row | SMILES | viability at 28.5 h, 10 µM (% viability) | viability at 28.5 h, 10 µM
1 | C/C(=N\Nc1nc(C(=O)O)cs1)c1ccccc1 [CBK261633] | 88.7% | –
2 | O=C(CN1C(=O)N2CCN=C2c2ccccc21)N1CCCCC1 [CBK283865] | 91.1% | –
3 | O=C(CSc1nnc2ccc(-c3ccccc3)nn12)N1CCCCC1 [CBK287678] | 100% | –
4 | O=S(=O)(c1ccc(C(F)(F)F)cc1Cl)N1CCN(Cc2ccc(F)cc2F)CC1 [CBK062739] | 107% | –
5 | CC(C)NC(=O)CN1CCC(Oc2nccnc2OCc2ccc(Cl)c(Cl)c2)CC1 [CBK153791] | 92.2% | –
6 | COc1ccc(C(CNCC(O)COc2cccc3c2CCCC3)c2ccccc2)cc1 (stereo not shown) [CBK028144] | 105% | –
7 | Cc1nc(C(F)(F)F)ccc1C(=O)Nc1nc(CC(N)=O)cs1 [CBK305776] | 100% | –
8 | O=C(N/N=C/C1C=Nc2ccccc21)c1cc([N+](=O)[O-])cc([N+](=O)[O-])c1 (stereo not shown) [CBK261485] | 89.8% | –
9 | CN1CCC(N[C@H]2C[C@@H](Cc3cc(CCO)on3)C2(C)C)CC1 [CBK289253] | 93.6% | –
10 | Cn1ccnc1CN1CCC2(C/C=C/Cc3ccccc3OCC(=O)NCCNC2=O)CC1 [CBK292180] | 95.7% | –
11 | COc1cccc([C@H]2CN(C(=O)c3ccccc3)[C@@H]3CCN(Cc4ccsc4)C[C@H]23)c1 [CBK285611] | 104% | –
12 | CC(=O)Nc1ccc(CNC(=O)c2ccc[nH]2)cc1 [CBK304538] | 87.1% | –
13 | COc1ccnc(N2CCCN(CCc3ccc(OC)c(OC)c3)CC2)n1 [CBK084002] | 85% | –
14 | CCOC(=O)c1cnc2nc(N3CCOCC3)nn2c1N [CBK007371] | 96.2% | –
15 | Nc1cccc(-c2nc(NC(=O)c3ccncc3)cnc2-c2ccc(F)c(Cl)c2)c1 [CBK037573] | 114% | –
16 | OCc1ccccc1-c1cncc(NCc2ccc3c(c2)OCO3)n1 [CBK065318] | 89.2% | –
17 | CCCCC(=O)NC(c1ccccc1OC)c1cc(Cl)c2cccnc2c1O (stereo not shown) [CBK110947] | 84.4% | –
18 | COc1ccc(C(=O)Nc2cccnc2N2CCNCC2)cc1 [CBK029421T] | 102% | –
19 | Cc1cccc(/C(C#N)=C\c2cn(CC(=O)O)c3ccccc23)c1 [CBK269457] | 110% | –
20 | O=C(c1ncoc1-c1ccc(F)cc1)N1CCOCC1 [CBK282362] | 87.1% | –
21 | CN(C)CC(O)CN1C(=O)NC(C)(C)C1=O (stereo not shown) [CBK027078] | 114% | –
22 | O=C(NC1CCCCC1)N[C@H]1CO[C@H]2[C@@H]1OC[C@@H]2n1cc(CC2CCCCC2)nn1 [CBK289510] | 75.2% | –

Row | SMILES | viability at 28.5 h, 10 µM (% viability) | viability at 28.5 h, 10 µM
23 | O=C(Nc1ccc2c(c1)OCO2)C1CCN(S(=O)(=O)c2ccc(Oc3ccccc3)cc2)CC1 [CBK269648] | 85.1% | –
24 | Cc1[nH]c2ccc(CNC(=O)NC3CCCc4cn[nH]c43)cc2c1C (stereo not shown) [CBK305488] | 89.8% | –
25 | CN(C)S(=O)(=O)c1cc(C(=O)Nc2ccc(C(=O)O)cc2)c(Cl)cc1Cl [CBK266783] | 99.5% | –
26 | NCc1ccc(CN(Cc2ccc(-c3ccccc3)cc2)C(=O)Nc2ccccc2C(F)(F)F)cc1 [CBK046116C] | 86.3% | –
27 | CCOCCn1c(=O)c2c(nc3oc(C(C)(C)C)cn32)n(C)c1=O [CBK307567] | 103% | –
28 | Cc1ccc(C2=CCN(CC(=O)N(C)C3CCCCC3)CC2)o1 [CBK283633] | 91.6% | –
29 | Cc1ccc(S(=O)(=O)NCC(=O)Nc2cnc(-c3cccc(C)c3)c(-c3ccc(N)cc3)n2)cc1 [CBK037600] | 83.5% | –
30 | CCOc1ccc2[nH]c(=O)c(/C=C3\SC(=S)N(CCC(=O)O)C3=O)cc2c1 [CBK265213] | 89.7% | –
31 | CCCC/C=C/c1cncc(N[C@H](CO)C(C)C)n1 [CBK065314] | 97% | –
32 | COc1cc2c(cc1OC)CN(C(=O)CSc1nnc3ccccn13)CC2 [CBK287814] | 94.8% | –
33 | COc1ccc(-c2nnc(SCC(=O)Nc3ccccc3[N+](=O)[O-])n2C)cc1 [CBK265609] | 103% | –
34 | CN(C)CCNC(=O)CSc1ccccc1 [CBK268426] | 98.6% | –
35 | O=C(COc1ccccc1)Nc1ccc2oc(-c3cccnc3)nc2c1 [CBK262959] | 92.1% | –
36 | CCOC(=O)COc1c(Cl)cc(/C=C/c2[nH]c(=O)[nH]c(=O)c2[N+](=O)[O-])cc1Cl [CBK267003] | 91.2% | –
37 | COc1cccc(-c2noc(Cn3cnc4sccc4c3=O)n2)c1 [CBK297127] | 85.3% | –
38 | CN(C)c1cccc(-c2nc(-c3ccco3)cnc2N)c1 [CBK063970] | 89.2% | –
39 | Cc1cc(N2CCOCC2)c2c(N)c(Br)cc(C)c2n1 [CBK066880] | 73% | –
40 | CC1CCCN(CC(=O)NCc2ccc(OCC(N)=O)cc2)CC1 (stereo not shown) [CBK305755] | 92.1% | –
41 | CN(CCO)C(=O)CCn1c(C(F)F)cc2cccnc21 [CBK282805] | 91.9% | –
42 | Cn1c(=O)n(CCN2CCOCC2)c(=O)c2c1nc1n2CCN1c1ccc(Oc2ccccc2)cc1 [CBK269202] | 91.4% | –
43 | S=c1[nH]nc(CSc2nc3ccccc3[nH]2)n1-c1ccccc1 [CBK267133] | 87.3% | –
44 | O=C(c1ccccc1F)N1C[C@H](c2ccsc2)[C@H]2CN(Cc3cccs3)CC[C@H]21 [CBK285657] | 94.8% | –

Row | SMILES | viability at 28.5 h, 10 µM (% viability) | viability at 28.5 h, 10 µM
45 | O=c1cc(C(F)(F)F)c2ccc(OCc3ccc(Cl)cc3)cc2o1 [CBK058200] | 93% | –
46 | O=C(NCCn1c(C(F)(F)F)cc(=O)c2cccc(F)c21)C1CC1 [CBK284807] | 85.5% | –
47 | CCn1cc(-c2cncn2CCCn2nc(C)cc2C)cn1 [CBK281770] | 97.1% | –
48 | CC(C)(C)OC(=O)N1CCN(Cc2nc(-c3ccccc3)no2)CC1 [CBK306465] | 99.8% | –
49 | N#Cc1c(Cl)cccc1Oc1ccc(S(=O)(=O)Nc2cccc(C(=O)O)c2)cc1 [CBK155718] | 108% | –
50 | Cc1ccccc1OCCCNCCN1CCOCC1 [CBK268590C] | 106% | –
51 | CN1CCC(C(=O)NC(=O)Nc2ccccc2F)CC1 [CBK034827] | 93.2% | –
52 | Cn1c(=O)c(-c2nc3ccccc3[nH]2)c(O)c2ccccc21 [CBK027678] | 92.7% | –
53 | O=C(NC1CN2CCC1CC2)c1ncoc1-c1ccccc1 (stereo not shown) [CBK283888] | 104% | –
54 | O=C(O)C(Cc1ccccc1)C(C(=O)O)c1ccccc1 (stereo not shown) [CBK286578] | 94.3% | –
55 | CCN(CC)C(=O)c1cccc(NC(=O)Cc2cn3ccsc3n2)c1 [CBK305353] | 85.6% | –
56 | CCN(CC)CCO/N=C1\CC2(CCCCC2)c2ccccc21 [CBK013325] | 101% | –
57 | CCCn1ccnc1CNc1nc2c(s1)c(C)nn2C [CBK307254] | 84.3% | –
58 | CC(C)CCN1CCn2nc(CNc3cnccn3)cc2C1 [CBK307540] | 85.8% | –
59 | O=C(Nc1ccc(Cl)cc1)N1CCN(c2ccccc2)CC1 [CBK155188] | 101% | –
60 | Cc1cc(N2CCOCC2)c2c(N)c(C)cc(C)c2n1 [CBK126908] | 83.8% | –
61 | C=CCC1(CC=C)CCN1C(=O)c1sc2ncn(C)c(=O)c2c1C [CBK282637] | 84.7% | –
62 | COc1ccc2c(c1)C1(CC(=O)N(Cc3ccccc3)C1=O)C(=O)N2CCCN1C(=O)c2ccccc2C1=O (stereo not shown) [CBK075501] | 93.4% | –
63 | Cc1cc(C)n2c(SCC(=O)c3ccccc3)nnc2n1 [CBK265378] | 84.3% | –
64 | Cc1ccc(S(=O)(=O)N2/C(=C\COc3ccc(Cl)cc3Cl)C(N3CCOCC3)c3ccccc32)cc1 (stereo not shown) [CBK262740] | 87.6% | –
65 | CC(C)(C)c1ccc(S(=O)(=O)N2CCN(CCC(=O)O)CC2)cc1 [CBK297089] | 103% | –
66 | CC(C)(C(=O)N1CCC(CC(=O)NCCc2ccccc2F)CC1)c1ccc(F)cc1 [CBK286497] | 104% | –

Row | SMILES | viability at 28.5 h, 10 µM (% viability) | viability at 28.5 h, 10 µM
67 | COc1ccc(NC(=O)CSc2nc3ccccc3n2-c2ccccc2)c([N+](=O)[O-])c1 [CBK266060] | 91.8% | –
68 | COc1cc2c(cc1OC)C(CCN)=NCC2 [CBK023947C] | 86.6% | –
69 | Cn1cc(CC(=O)N2CCCc3ccccc32)c2ccccc21 [CBK200349] | 64.8% | –
70 | OC[C@H]1CCCN1c1nc(Br)cn2c(-c3ccccn3)cnc12 [CBK094394] | 100% | –
71 | Cc1cccc(C(=O)Oc2ccc(C(c3c(C)n[nH]c3O)c3c(C)n[nH]c3O)cc2)c1 [CBK264804] | 102% | –
72 | COc1ccc(CCCN2CCC(C(=O)NC(=O)Nc3cc(OC)c(OC)c(OC)c3)CC2)cc1 [CBK034855] | 86.3% | –
73 | O=[N+]([O-])c1ccc(CN2CCC(Oc3nccnc3OCC3COc4ccccc4O3)CC2)cc1 (stereo not shown) [CBK082984T] | 99.1% | –
74 | N#CCCCN1CCCC2(C1)NCCc1c2[nH]c2cc(F)ccc12 (stereo not shown) [CBK039826] | 117% | –
75 | CC1CCCCN1S(=O)(=O)c1ccc(NCCC(=O)c2ccc(Cl)cc2)cc1 (stereo not shown) [CBK268529] | 113% | –
76 | COc1ccc(C(=O)C2=C(O)C(=O)N(Cc3cccnc3)C2c2cccc(OC)c2OC)cc1C (stereo not shown) [CBK264906] | 92.8% | –
77 | O=C(c1cnn(C(=O)c2ccc3c(=O)n4c(nc3c2)CCC4)c1)c1ccccc1O [CBK295145] | 95.7% | –
78 | O=C(C1CC1)N1CCC[C@H]1Cn1nc(-c2ccc(F)cc2)ccc1=O [CBK284252] | 79.8% | –
79 | CC(C)Nc1cc(Cl)ncn1 [CBK081511] | 108% | –
80 | COc1ccc(NC(=O)C2CN(S(=O)(=O)c3ccccc3)CCN2S(=O)(=O)c2ccccc2)cc1 (stereo not shown) [CBK262500] | 98.5% | –
81 | O=C(Nc1ccc(Cl)cc1)c1cccc(-n2cnnn2)c1 [CBK287791] | – | 84.2%
82 | Cn1c(=O)n(C)c2cc(NC(=O)C(F)(F)F)ccc21 [CBK021127] | 80.9% | –
83 | Cn1nc(C(C)(C)C)cc1NC(=O)CN1CCc2cncnc2C1 [CBK304934] | 106% | –
84 | CCc1nnc(SC(C)C(=O)N2CCCc3ccccc32)[nH]1 (stereo not shown) [CBK306009] | 84.1% | –
85 | CCCC(=O)Nc1nnc(-c2ccc(C)cc2C)o1 [CBK287700] | 107% | –
86 | O=C(O)C(c1c[nH]c2ccccc12)N1CCOCC1 (stereo not shown) [CBK286739] | 83.8% | –
87 | O=C1COc2ccccc2C/C=C/CC2(CCN(CC3CCOCC3)CC2)CN1 [CBK292128] | 104% | –
88 | O=C(CCS(=O)(=O)c1ccccc1)NCc1ccccc1OC1CCNC1 (stereo not shown) [CBK028296T] | 95.9% | –
